Data published in patent publication US9254334B2, “Polyamine derivatives” (CLSN Laboratories, Inc., priority 2009, dated 2016).

Key:
[1] = tested on: VEGF protein; test: In vitro transfection of simVEGF siRNA complexes, supernatant mVEGF protein knockdown; format: cell-based, murine; settings: SCCVII cells, 0.5 μg complexed simVEGF siRNA, 6 h + 40 h
Experimental: (§1) The transfection activity of siRNA and dioleoyl monoamine delivery reagent conjugate complexes is determined in vitro. Transfection complexes containing simVEGF siRNA construct are prepared by methods previously described in Example 9. SCCVII cells (0.5×10^5 cells/well) are seeded into 24-well tissue culture plates in 10% FBS. Each well is incubated for 6 hours with 0.5 μg of complexed siRNA in a total volume of 250 μL of DMEM. When the incubation period is concluded, 250 μL of DMEM supplemented with 20% FBS is added to the transfected cells and incubated further for another 40 hours. At the end of the incubation period, supernatant mVEGF protein determinations are made.
as §1, with “siRNA complexes with” for “siRNA and”, “monoamine (Example 3) or methyl-dioleoyl monoamine (Example 3A)” for “monoamine”, “delivery reagents” for “delivery reagent conjugate complexes”, “previously described.” for “previously described in Example 9.”, “are made as described above.” for “are made.”

[2] = tested on: Caveolin-1 (Cav-1) transcript; test: Caveolin-1 transcript knockdown in lung and liver after single iv injection of formulated siRNA (qRTPCR); format: in vivo, mice; settings: 100 μg siRNA iv, 10:1 ratio, 48 h, normalized to β-actin, vs non-targeting siRNA control
Experimental: A total of 100 μg siRNA is injected in a final volume of 200 μL (0.5 mg/mL). […] Results (FIG. 3) indicate a significant decrease in target specific Cav-1 transcript levels in both lungs (76% knockdown) and livers (62% knockdown). For each group, n=5.

[3] = tested on: squamous cell carcinoma tumors; test: Tumor growth inhibition and survival after intratumoral formulated VEGF siRNA; format: in vivo, mice
Experimental: (§2) In this example tumors were implanted into the hind flanks of […] by injecting 5×10^5 squamous cell carcinoma cells. Tumors were allowed to grow until they reached a size of […]. Tumors were then injected with a commercially available siRNA targeting VEGF that was formulated with dioleoyl monoamine at a 5:1 N:P ratio or with a similarly formulated non-silencing control siRNA. The final concentration of siRNA was 0.3 mg/mL. A total of 30 μl of the formulated siRNA solution was injected into tumors and injections were repeated every 3-4 days for a total of 6 injections. The tumors from some animals were harvested 48 hours after the second formulated siRNA injection for transcript analysis.

[4] = Controlled release of complexed Cav-1 siRNA from crosslinked alginate gel; format: physicochemical
Experimental: siRNA complexed with dioleoyl monoamine is formulated as described in Example 39 containing 50 μg Cav-1 siRNA and 1.4 μg dioleoyl monoamine in a volume of 50 μL. Sodium alginate (Type A) is dissolved in water to give a 2% solution. An alginate solution (100 μL) is added to a single well of a 96-well plate followed by 50 μL of the dioleoyl monoamine/Cav-siRNA solution. After thorough mixing, 50 μL of a 0.68 M CaCl2 solution is added to the previous mixture to crosslink the gel. One hundred μL of water or 0.1 M EDTA (which serves to break down the gel by complexing the Ca^2+ ions) is then added to ensure complete submersion of the gel in aqueous solution. At the prescribed time points, the supernatants are removed (200 μL) and replaced with fresh 200 μL water or 0.1 M EDTA. After 84 hours, all collected samples are assayed for Cav-1 siRNA content using qRT-PCR. The siRNA amounts collected at each time point are summed in order to determine amount released over time. In samples that have the addition of EDTA, 100% of the loaded dioleoyl monoamine formulated siRNA is released after 84 hours.

[5] = tested on: VEGF transcript; test: VEGF transcript knockdown in subcutaneous tumors after intratumoral injection of formulated siVEGF; format: in vivo, mice; settings: VEGF siRNA 5:1 N:P, 0.3 mg/mL, 30 μl intratumoral, 48 h after second injection
Experimental: as §2

[6] = one week after last of 6 intratumoral injections

Which “knockdown of VEGF protein” value [1] does the source give for CCCCCCCC/C=C\CCCCCCCC(=O)NCCN(CCN)CCNC(=O)CCCCCCC/C=C\CCCCCCCC [dioleoyl monoamine, N,N′-dioleoyl tris(aminoethyl)amine] here?
The value was roughly 95%.

And the “Cav-1 transcript knockdown, livers” value [2]?
Its value is 62%.

What about the “Cav-1 transcript knockdown, lungs” value [2] of the same molecule?
The value was 76%.

And the “improvement in median survival relative to non-silencing control or untreated groups” value ([3]; VEGF siRNA intratumoral, 6 injections)?
Its value is 13%.

What about the “decrease in tumor volume relative to non-silencing siRNA” value [3, 6] of the same molecule?
Its value is 31%.

And the “decrease in tumor volume relative to untreated control animals” value [3, 6]?
Its value is 57%.

And the “loaded siRNA released from alginate gel” value ([4]; with 0.1 M EDTA, after 84 hours)?
Its value is 100%.

And the “loaded siRNA released from alginate gel” value ([4]; without EDTA (water), by 84 hours)?
The value was less than 20%.

And the “decrease in VEGF transcript relative to the non-silencing control group” value [5]?
Its value is 32%.
